# Reference: patent US5110831A, “Vinylogous hydroxamic acids and derivatives thereof as 5-lipoxygenase inhibitors” (Du Pont Merck Pharmaceutical Company, priority 1990, dated 1992)
# Test system: inflammatory cells such as polymorphonuclear leukocytes
# Test: not given
# Details: cited from earlier work
row,Compound,chemotactic activity for inflammatory cells
1,CCCCC/C=C\C[C@@H](O)/C=C/C=C/C=C\[C@@H](O)CCCC(=O)O [LTB4],potent chemotactic factors

# Target: T1, RBL-1 5-Lipoxygenase (Rattus norvegicus, UniProt P12527)
# T1 construct: supernatant from homogenized RBL-1 cells; endogenous in cells; host or cells: RBL-1 cells (10,000×g supernatant of homogenate)
# T1 sequence (P12527 1-673): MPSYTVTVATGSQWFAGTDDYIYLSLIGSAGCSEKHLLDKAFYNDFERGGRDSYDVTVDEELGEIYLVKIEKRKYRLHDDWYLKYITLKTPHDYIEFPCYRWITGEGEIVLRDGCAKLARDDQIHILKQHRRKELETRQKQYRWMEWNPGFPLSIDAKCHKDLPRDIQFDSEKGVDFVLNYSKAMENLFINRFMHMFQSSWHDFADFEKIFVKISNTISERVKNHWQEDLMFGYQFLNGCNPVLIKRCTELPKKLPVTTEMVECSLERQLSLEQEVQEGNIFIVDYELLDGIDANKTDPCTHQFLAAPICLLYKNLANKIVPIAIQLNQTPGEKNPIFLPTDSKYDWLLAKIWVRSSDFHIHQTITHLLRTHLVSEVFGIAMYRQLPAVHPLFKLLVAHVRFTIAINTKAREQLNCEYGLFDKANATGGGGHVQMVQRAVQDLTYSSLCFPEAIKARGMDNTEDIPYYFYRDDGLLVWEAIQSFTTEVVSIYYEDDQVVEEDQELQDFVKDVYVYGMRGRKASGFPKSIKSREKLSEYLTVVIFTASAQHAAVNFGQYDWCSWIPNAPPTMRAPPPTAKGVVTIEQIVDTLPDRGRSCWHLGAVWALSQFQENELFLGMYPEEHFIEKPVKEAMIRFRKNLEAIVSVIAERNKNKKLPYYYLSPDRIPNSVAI
# Test: RBL-1 5-lipoxygenase assay (10,000×g supernatant from homogenized RBL-1 cells, [14C] arachidonic acid)
# Type: biochemical
# Details: pH 7.0, 37° C., 5 min preincubation, 0.042 mM arachidonic acid; linear regression on three concentrations
# Method: The potencies of the compounds as 5-lipoxygenase inhibitors were determined using a RBL-1 5-lipoxygenase assay. The procedure of Jakschik et al. was used (Jakschik, B. A.; Lee, L. H.; Shuffer, G.; Parker, C. W., Prostaglandins, 1978, 16, 733; Jakschik, B. A.; Sun, F. F.; Lee, L. H.; Steinhoff, M. M. Biochem. Biophys. Res. Commun., 1980, 95, 100; […]., Biochem. Biophys. Res. Commun., 1981, 102, 624). The enzyme was prepared as a 10,000×gsupernatant from homogenized RBL-1 cells. Because of variability in the enzyme content from culture to culture, an amount of supernatant was chosen to give a net production of 3300-3800 dpm of 5-HETE under the assay conditions (total cell protein 9-20 μg/assay). All reactions were run in duplicate. In a total volume of 100 μL, the appropriate amount of enzyme was incubated with test compound (prepared in 5% DMSO, 95% 0.2 M Tris, pH 8.5) in a phosphate buffer (45 mM sodium phosphate, 0.83 mM EDTA, 0.083% gelatin, 0.1 mM glutathione, 0.83 mM calcium chloride, 0.012 mM indomethacin) at pH 7.0 and 37° C. for 5 min. The reaction was initiated by the addition of 20 μL of a solution of arachidonic acid in phosphate buffer. […] Remaining products were eluted with methanol/water/acetic acid (70:30:1). Activity was measured as the total radioactivity in the 5-LO products, and inhibition was calculated at (1-D/C)×100%, where D is the activity in the presence of the test compound and C is the control activity.
row,Compound,IC50
1,"CN(O)C=CC(=O)c1ccc(OCc2ccccc2)cc1 [Example 1a, 1-(4-(Benzyloxy)phenyl)-3-(N-hydoxy-N-methyl)aminoprop-2-en-1-one]",1600 nM
2,CC(c1ccc2ccccc2c1)N(O)C=CC(=O)c1ccc2ccccc2c1 (stereo not drawn) [Example 1b],2200 nM
3,O=C(C=CN(O)C1CCCCC1)c1ccc2ccccc2c1 [Example 1c],2500 nM
4,O=C(C=CN(O)Cc1ccc(OCc2ccccc2)cc1)C1CC1 [Example 1e],3100 nM
5,CN(O)C=CC(=O)c1cc2ccccc2s1 [Example 1i],440 nM
6,O=C(C=CN(O)Cc1ccc2ccccc2c1)C1CC1 [Example 1j],1500 nM
7,"O=C(C=CN(O)Cc1ccccc1)c1ccc2ccccc2c1 [Example 2a, 1-(2-naphthyl)-3-(N-hydoxy-N-benzyl) aminoprop-2-en-1-one]",2300 nM
8,O=C(C=CN(O)c1ccccc1)c1ccc2ccccc2c1 [Example 2b],1100 nM
9,O=C(C=CN(O)Cc1ccccc1)c1ccc(Cl)cc1 [Example 2e],250 nM
10,CC(=O)C=CN(O)Cc1ccc(OCc2ccccc2)cc1 [Example 3a],7700 nM

# Test system: not given
# Test: not given
# Details: times the activity of histamine; cited from earlier work
row,Compound,spasmogen activity relative to histamine
1,CCCCC/C=C\C\C=C/C=C/C=C/[C@@H](SC[C@H](NC(=O)CC[C@H](N)C(=O)O)C(=O)NCC(=O)O)[C@@H](O)CCCC(=O)O [LTC4],1000 times
2,CCCCC/C=C\C\C=C/C=C/C=C/[C@@H](SC[C@H](N)C(=O)NCC(=O)O)[C@@H](O)CCCC(=O)O [LTD4],1000 times
3,CCCCC/C=C\C\C=C/C=C/C=C/[C@@H](SC[C@H](N)C(=O)O)[C@@H](O)CCCC(=O)O [LTE4],1000 times

# Test system: not given
# Test: not given
# Details: cited from earlier work
row,Compound,effect of inhaled LTC4
1,CCCCC/C=C\C\C=C/C=C/C=C/[C@@H](SC[C@H](NC(=O)CC[C@H](N)C(=O)O)C(=O)NCC(=O)O)[C@@H](O)CCCC(=O)O [LTC4],causes the immediate development of symptoms resembling those of an asthmatic attack
